Assay results reported in patent US20050014806A1, “Substituted isoxazoles and their use as antibiotics” (priority 2001, published 2005).
In brackets after ≈: the same amount, converted by molar mass.

Experiments:
[1] = system: Staphylococcus aureus (BCM-012); assay: MIC by microdilution in microtiter plate, BCM-012; assay type: cell-based; settings: incubation 24 h at 35° C.
Description: (§1) In order to assess the antimicrobial activity of the compounds of the present invention a method of microdilution in microtiter plate was used. The compounds were diluted in a nutritious medium and, subsequently, distributed by two-fold serial dilutions in 96 well plates. Then, plates were inoculated with a bacterial suspension. After incubation for 24 h at 35° C. the minimum inhibitory concentration (MIC) of the drug in […] was determined as the lowest concentration of compound which inhibits the growth of the bacterium. Results included in Table 1 illustrate the antimicrobial activity of some of the compounds of the present invention in comparison with thus obtained with two compounds (linezolid and eperezolid) of a known antimicrobial activity. The antimicrobial activity of the compound versus Streptococcus faecalis (BCM-010, strain designation as for SALVAT collection) Staphylococcus aureus (BCM-012, strain designation as for SALVAT collection) and Moraxella catarrhalis (BCM-015, strain designation as for SALVAT collection), respectively, is shown in the different columns.

[2] = system: Streptococcus faecalis (BCM-010); assay: MIC by microdilution in microtiter plate, BCM-010; assay type: cell-based; settings: Enterococcus faecalis, incubation 24 h at 35° C.
Description: as §1

HT-29 = assay: cells; assay type: cell-based, human; settings: Homo sapiens, HT-29, read-out: Cell viability percentage at 100 μM HT-29
Description: (§2) Antitumoral activity of the compounds of the present invention was evaluated by determining in vitro cell growth inhibition of 2 human colon adenocarcinome cell lines. The SBR (Sulphorhodamine B) protein dye assay described by the NCI (National Cancer Institute) was used. Results of Table 2 illustrate the antiproliferative activity of some of the compounds of the present invention versus the one obtained with exisulind (sulindac sulfone).

HCT-116 = assay: cells; assay type: cell-based, human; settings: Homo sapiens, HCT-116, read-out: Cell viability percentage at 100 μM HCT-116
Description: as §2

[3] = system: Moraxella catarrhalis (BCM-015); assay: MIC by microdilution in microtiter plate, BCM-015; assay type: cell-based; settings: incubation 24 h at 35° C.
Description: as §1

SMILES: OCc1cn(-c2ccc(-c3cc(CNc4ccon4)on3)cc2F)cn1 [Example 4]
- MIC [1]: 2 µg/mL (≈ 5.63 µM)
- MIC [2]: 4 µg/mL (≈ 11.3 µM)
- viability at 100 µM (HT-29): 66.1%
- viability at 100 µM (HCT-116): 57.1%

SMILES: Cc1cc(NCc2cc(-c3ccc(-n4ccc(/C=C/C#N)c4)c(F)c3)no2)sn1 [Example 37]
- viability at 100 µM (HT-29): < 5%
- viability at 100 µM (HCT-116): 18.9%

SMILES: N#C/C=C/c1cn(-c2ccc(-c3cc(CNc4ccon4)on3)cc2F)cn1 [Example 28]
- MIC [1]: 0.5 µg/mL (≈ 1.33 µM)
- MIC [2]: 1 µg/mL (≈ 2.66 µM)
- MIC [3]: 4 µg/mL (≈ 10.6 µM)
- viability at 100 µM (HT-29): 71.2%
- viability at 100 µM (HCT-116): 64.7%

SMILES: N#C/C=C/c1ccn(-c2ccc(-c3cc(CNc4ccon4)on3)cc2F)c1 [Example 36]
- viability at 100 µM (HT-29): 14.3%
- viability at 100 µM (HCT-116): 77.1%

SMILES: Cc1cn(-c2ccc(-c3cc(CNc4ccon4)on3)cc2F)cn1 [Example 38]
- viability at 100 µM (HT-29): 53.3%
- viability at 100 µM (HCT-116): 48.6%
